Test results published in ChEMBL document CHEMBL3044830, “Synthesis, characterization, antibacterial, antifungal, and immunomodulating activities of gatifloxacin derivatives” (Med Chem Res, 2010).

Assays:
Trichophyton rubrum [1] = experiment: Antifungal activity against Trichophyton rubrum assessed as zone of inhibition at 5 to 40 ug/ml after 7 days by disk diffusion method relative to gatifloxacin; format: functional
Trichophyton rubrum [2] = experiment: Antifungal activity against Trichophyton rubrum assessed as concentration required to obtain a zone of inhibition of 40 mm after 7 days by disk diffusion method; format: functional
Trichophyton rubrum [3] = experiment: Antifungal activity against Trichophyton rubrum assessed as concentration required to obtain a zone of inhibition of 20 mm after 7 days by disk diffusion method; format: functional
Proteus mirabilis [4] = experiment: Antibacterial activity against Proteus mirabilis assessed as zone of inhibition at 5 to 40 ug/ml after 18 to 24 hr by disc diffusion method relative to gatifloxacin; format: functional
Proteus mirabilis [5] = experiment: Antibacterial activity against Proteus mirabilis assessed as concentration required to obtain a zone of inhibition of 10 mm after 18 to 24 hr by disc diffusion method; format: functional
Proteus mirabilis [6] = experiment: Antibacterial activity against Proteus mirabilis assessed as concentration required to obtain a zone of inhibition of 20 mm after 18 to 24 hr by disc diffusion method; format: functional
Proteus mirabilis [7] = experiment: Antibacterial activity against Proteus mirabilis assessed as concentration required to obtain a zone of inhibition of 5 mm after 18 to 24 hr by disc diffusion method; format: functional
Klebsiella pneumoniae [8] = experiment: Antibacterial activity against Klebsiella pneumoniae assessed as zone of inhibition at 5 to 40 ug/ml after 18 to 24 hr by disk diffusion method relative to gatifloxacin; format: functional
Klebsiella pneumoniae [9] = experiment: Antibacterial activity against Klebsiella pneumoniae assessed as concentration required to obtain a zone of inhibition of 20 mm after 18 to 24 hr by disk diffusion method; format: functional
Klebsiella pneumoniae [10] = experiment: Antibacterial activity against Klebsiella pneumoniae assessed as concentration required to obtain a zone of inhibition of 10 mm after 18 to 24 hr by disk diffusion method; format: functional
Shigella flexneri [11] = experiment: Antibacterial activity against Shigella flexneri assessed as concentration required to obtain a zone of inhibition of 5 mm after 18 to 24 hr by disk diffusion method; format: functional
Escherichia coli [12] = experiment: Antibacterial activity against Escherichia coli assessed as concentration required to obtain a zone of inhibition of 20 mm after 18 to 24 hr by disk diffusion method; format: functional
Escherichia coli [13] = experiment: Antibacterial activity against Escherichia coli assessed as concentration required to obtain a zone of inhibition of 10 mm after 18 to 24 hr by disk diffusion method; format: functional
Klebsiella pneumoniae [14] = experiment: Antibacterial activity against Klebsiella pneumoniae assessed as concentration required to obtain a zone of inhibition of 5 mm after 18 to 24 hr by disk diffusion method; format: functional
Shigella flexneri [15] = experiment: Antibacterial activity against Shigella flexneri assessed as zone of inhibition at 5 to 40 ug/ml after 18 to 24 hr by disk diffusion method relative to gatifloxacin; format: functional
Shigella flexneri [16] = experiment: Antibacterial activity against Shigella flexneri assessed as concentration required to obtain a zone of inhibition of 10 mm after 18 to 24 hr by disk diffusion method; format: functional
Shigella flexneri [17] = experiment: Antibacterial activity against Shigella flexneri assessed as concentration required to obtain a zone of inhibition of 20 mm after 18 to 24 hr by disk diffusion method; format: functional
Escherichia coli [18] = experiment: Antibacterial activity against Escherichia coli assessed as zone of inhibition at 5 to 40 ug/ml after 18 to 24 hr by disk diffusion method relative to gatifloxacin; format: functional
Staphylococcus aureus = experiment: Antibacterial activity against methicillin-resistant Staphylococcus aureus assessed as zone of inhibition at 5 to 40 ug/ml after 18 to 24 hr by disk diffusion method relative to gatifloxacin; format: functional
Escherichia coli [19] = experiment: Antibacterial activity against Escherichia coli assessed as concentration required to obtain a zone of inhibition of 5 mm after 18 to 24 hr by disk diffusion method; format: functional
Bacillus subtilis [20] = experiment: Antibacterial activity against Bacillus subtilis assessed as zone of inhibition at 5 to 40 ug/ml after 18 to 24 hr by disk diffusion method relative to gatifloxacin; format: functional
Bacillus subtilis [21] = experiment: Antibacterial activity against Bacillus subtilis assessed as concentration required to obtain a zone of inhibition of 20 mm after 18 to 24 hr by disk diffusion method; format: functional
Bacillus subtilis [22] = experiment: Antibacterial activity against Bacillus subtilis assessed as concentration required to obtain a zone of inhibition of 10 mm after 18 to 24 hr by disk diffusion method; format: functional
Bacillus subtilis [23] = experiment: Antibacterial activity against Bacillus subtilis assessed as concentration required to obtain a zone of inhibition of 5 mm after 18 to 24 hr by disk diffusion method; format: functional
Pseudomonas aeruginosa [24] = experiment: Antibacterial activity against Pseudomonas aeruginosa assessed as zone of inhibition at 5 to 40 ug/ml after 18 to 24 hr by disk diffusion method relative to gatifloxacin; format: functional
Pseudomonas aeruginosa [25] = experiment: Antibacterial activity against Pseudomonas aeruginosa assessed as concentration required to obtain a zone of inhibition of 20 mm after 18 to 24 hr by disk diffusion method; format: functional
Pseudomonas aeruginosa [26] = experiment: Antibacterial activity against Pseudomonas aeruginosa assessed as concentration required to obtain a zone of inhibition of 10 mm after 18 to 24 hr by disk diffusion method; format: functional
Pseudomonas aeruginosa [27] = experiment: Antibacterial activity against Pseudomonas aeruginosa assessed as concentration required to obtain a zone of inhibition of 5 mm after 18 to 24 hr by disk diffusion method; format: functional
Citrobacter [28] = experiment: Antibacterial activity against Citrobacter assessed as zone of inhibition at 5 to 40 ug/ml after 18 to 24 hr by disk diffusion method relative to gatifloxacin; format: functional
Citrobacter [29] = experiment: Antibacterial activity against Citrobacter assessed as concentration required to obtain a zone of inhibition of 20 mm after 18 to 24 hr by disk diffusion method; format: functional
Citrobacter [30] = experiment: Antibacterial activity against Citrobacter assessed as concentration required to obtain a zone of inhibition of 10 mm after 18 to 24 hr by disk diffusion method; format: functional
Citrobacter [31] = experiment: Antibacterial activity against Citrobacter assessed as concentration required to obtain a zone of inhibition of 5 mm after 18 to 24 hr by disk diffusion method; format: functional
Shigella sp. [32] = experiment: Antibacterial activity against Shigella typhi assessed as zone of inhibition after 18 to 24 hr by disc diffusion method relative to gatifloxacin; format: functional
Shigella sp. [33] = experiment: Antibacterial activity against Shigella typhi assessed as concentration required to obtain a zone of inhibition of 5 mm after 18 to 24 hr by disc diffusion method; format: functional
Saccharomyces cerevisiae = experiment: Antifungal activity against Saccharomyces cerevisiae assessed as zone of inhibition at 5 to 40 ug/ml after 7 days by disk diffusion method relative to gatifloxacin; format: functional
Fusarium solani [34] = experiment: Antifungal activity against Fusarium solani assessed as zone of inhibition at 5 to 40 ug/ml after 7 days by disk diffusion method relative to gatifloxacin; format: functional
Fusarium solani [35] = experiment: Antifungal activity against Fusarium solani assessed as concentration required to obtain a zone of inhibition of 40 mm after 7 days by disk diffusion method; format: functional
Fusarium solani [36] = experiment: Antifungal activity against Fusarium solani assessed as concentration required to obtain a zone of inhibition of 20 mm after 7 days by disk diffusion method; format: functional
Candida albicans [37] = experiment: Antifungal activity against Candida albicans assessed as zone of inhibition at 5 to 40 ug/ml after 7 days by disk diffusion method relative to gatifloxacin; format: functional
Candida albicans [38] = experiment: Antifungal activity against Candida albicans assessed as concentration required to obtain a zone of inhibition of 40 mm after 7 days by disk diffusion method; format: functional
Candida albicans [39] = experiment: Antifungal activity against Candida albicans assessed as concentration required to obtain a zone of inhibition of 20 mm after 7 days by disk diffusion method; format: functional
[40] = Antibacterial activity against Hofmanni bacterium assessed as zone of inhibition after 18 to 24 hr by disc diffusion method relative to gatifloxacin
[41] = Antibacterial activity against Hofmanni bacterium assessed as concentration required to obtain a zone of inhibition of 5 mm after 18 to 24 hr by disc diffusion method
[42] = Antibacterial activity against Hofmanni bacterium assessed as concentration required to obtain a zone of inhibition of 20 mm after 18 to 24 hr by disc diffusion method
[43] = Antibacterial activity against Hofmanni bacterium assessed as concentration required to obtain a zone of inhibition of 10 mm after 18 to 24 hr by disc diffusion method

With C[C@@H]1CN(c2c(F)c(N)c3c(=O)c(C(=O)O)cn(C4CC4)c3c2F)C[C@H](C)N1 [SPARFLOXACIN] the “inhibition zone (IZ)” value (Trichophyton rubrum [1]) was 169%, the Activity (Trichophyton rubrum [2]) was 24 µg/mL and the Activity (Trichophyton rubrum [3]) was 20 µg/mL. The “inhibition zone (IZ)” value (Proteus mirabilis [4]) was 90%, the Activity (Proteus mirabilis [5]) was 12 µg/mL and the Activity (Proteus mirabilis [6]) was 15 µg/mL. For the same compound, the Activity (Proteus mirabilis [7]) was 10 µg/mL, the “inhibition zone (IZ)” value (Klebsiella pneumoniae [8]) was 96.1% and the Activity (Klebsiella pneumoniae [9]) was 16 µg/mL. It also gave an Activity (Klebsiella pneumoniae [10]) of 13 µg/mL, an Activity (Shigella flexneri [11]) of 9 µg/mL and an Activity (Escherichia coli [12]) of 14 µg/mL. The Activity (Escherichia coli [13]) was 11 µg/mL, the Activity (Klebsiella pneumoniae [14]) was 10 µg/mL and the “inhibition zone (IZ)” value (Shigella flexneri [15]) was 75.1%. For the same compound, the Activity (Shigella flexneri [16]) was 11 µg/mL, the Activity (Shigella flexneri [17]) was 13 µg/mL and the “inhibition zone (IZ)” value (Escherichia coli [18]) was 98.01%. For the same compound, the “inhibition zone (IZ)” value (Staphylococcus aureus) was 77.2%, the Activity (Escherichia coli [19]) was 9 µg/mL and the “inhibition zone (IZ)” value (Bacillus subtilis [20]) was 94.6%. The Activity (Bacillus subtilis [21]) was 15 µg/mL, the Activity (Bacillus subtilis [22]) was 13 µg/mL and the Activity (Bacillus subtilis [23]) was 12 µg/mL. The “inhibition zone (IZ)” value (Pseudomonas aeruginosa [24]) was 117.6%, the Activity (Pseudomonas aeruginosa [25]) was 15 µg/mL and the Activity (Pseudomonas aeruginosa [26]) was 13 µg/mL. The Activity (Pseudomonas aeruginosa [27]) was 11 µg/mL, the “inhibition zone (IZ)” value (Citrobacter [28]) was 42.73% and the Activity (Citrobacter [29]) was 10 µg/mL. The Activity (Citrobacter [30]) was 9 µg/mL, the Activity (Citrobacter [31]) was 8 µg/mL and the “inhibition zone (IZ)” value (Shigella sp. [32]) was 87%. The Activity (Shigella sp. [33]) was 9 µg/mL, the “inhibition zone (IZ)” value (Saccharomyces cerevisiae) was 0% and the “inhibition zone (IZ)” value (Fusarium solani [34]) was 70%. The Activity (Fusarium solani [35]) was 11 µg/mL, the Activity (Fusarium solani [36]) was 10 µg/mL and the “inhibition zone (IZ)” value (Candida albicans [37]) was 176%. For the same compound, the Activity (Candida albicans [38]) was 17 µg/mL, the Activity (Candida albicans [39]) was 13 µg/mL and the “inhibition zone (IZ)” value [40] was 110%. It also gave an Activity [41] of 11 µg/mL, an Activity [42] of 14 µg/mL and an Activity [43] of 13 µg/mL.
